Test results as given in US11931424B2, “Combination MCL-1 inhibitors with anti-body drug conjugates” (Gilead Sciences, Inc., priority 2021, dated 2024).
Where a name gives a salt, the structure may show the parent alone.

System: panel of breast cancer cell lines
Test: Compound A with targeted agents and chemotherapies, 72-hour in vitro proliferation assays
Type: cell-based
Settings: 72-hour proliferation
[1] = AU565 cell line, compound A × partner
[2] = BT-20 cell line, compound A × partner
[3] = CAL-51 cell line, compound A × partner
[4] = CAL-85-1 cell line, compound A × partner
[5] = CAL-120 cell line, compound A × partner
[6] = CAL-148 cell line, compound A × partner
[7] = CAMA-1 cell line, compound A × partner
[8] = DU-4475 cell line, compound A × partner
[9] = EVSA-T cell line, compound A × partner

For `CC(C)NC[C@@H](C(=O)N1CCN(c2ncnc3c2[C@H](C)C[C@H]3O)CC1)c1ccc(Cl)cc1` [GDC-0068], the “Best CI” value [1] was 0.88, the “Bliss Volume” value [1] was 5.42 and the HSA volume [1] was 2.46. For the same compound, the “Loewe Volume” value [1] was 1.85, the “Synergy Score” value [1] was 6.93 and the “Best CI” value [2] was 0.15. The “Bliss Volume” value [2] was 14.37, the HSA volume [2] was 13.36 and the “Loewe Volume” value [2] was 11.91. The “Synergy Score” value [2] was 26.99, the “Best CI” value [3] was 0.66 and the “Bliss Volume” value [3] was 1.90. For the same compound, the HSA volume [3] was 2.22, the “Loewe Volume” value [3] was 2.48 and the “Synergy Score” value [3] was 1.93. For the same compound, the “Best CI” value [4] was 0.22, the “Bliss Volume” value [4] was −1.63 and the HSA volume [4] was 2.26. The “Loewe Volume” value [4] was 1.63, the “Synergy Score” value [4] was 4.37 and the “Best CI” value [5] was 0.04. For the same compound, the “Bliss Volume” value [5] was −1.18, the HSA volume [5] was −0.50 and the “Loewe Volume” value [5] was 0.09. For the same compound, the “Synergy Score” value [5] was 1.05, the “Best CI” value [6] was 0.20 and the “Bliss Volume” value [6] was 15.98. For the same compound, the HSA volume [6] was 11.23, the “Loewe Volume” value [6] was 11.35 and the “Synergy Score” value [6] was 22.09. The “Best CI” value [7] was 0.11, the “Bliss Volume” value [7] was 26.60 and the HSA volume [7] was 14.33. The “Loewe Volume” value [7] was 13.52, the “Synergy Score” value [7] was 27.46 and the “Bliss Volume” value [8] was −5.18. For the same compound, the HSA volume [8] was −7.77, the “Loewe Volume” value [8] was −5.05 and the “Synergy Score” value [8] was 0.20. For the same compound, the “Best CI” value [9] was 0.27, the “Bliss Volume” value [9] was 38.10 and the HSA volume [9] was 10.77. The “Loewe Volume” value [9] was 8.56, the “Synergy Score” value [9] was 18.16 and the “Best CI” value (HCC38, compound A × partner) was 1.04. The “Bliss Volume” value (HCC38, compound A × partner) was 3.63, the HSA volume (HCC38, compound A × partner) was 6.49 and the “Loewe Volume” value (HCC38, compound A × partner) was 5.61. For the same compound, the “Synergy Score” value (HCC38, compound A × partner) was 5.92, the “Best CI” value (HCC70, compound A × partner) was 0.30 and the “Bliss Volume” value (HCC70, compound A × partner) was 19.29. The HSA volume (HCC70, compound A × partner) was 14.42, the “Loewe Volume” value (HCC70, compound A × partner) was 13.10 and the “Synergy Score” value (HCC70, compound A × partner) was 27.63. For the same compound, the “Best CI” value (HCC1143, compound A × partner) was 0.56, the “Bliss Volume” value (HCC1143, compound A × partner) was 1.41 and the HSA volume (HCC1143, compound A × partner) was −1.97. For the same compound, the “Loewe Volume” value (HCC1143, compound A × partner) was 1.22, the “Synergy Score” value (HCC1143, compound A × partner) was 3.73 and the “Best CI” value (HCC1569, compound A × partner) was 0.24. For the same compound, the “Bliss Volume” value (HCC1569, compound A × partner) was 9.34, the HSA volume (HCC1569, compound A × partner) was 10.52 and the “Loewe Volume” value (HCC1569, compound A × partner) was 10.52. The “Synergy Score” value (HCC1569, compound A × partner) was 15.41, the “Best CI” value (HCC1806, compound A × partner) was 0.83 and the “Bliss Volume” value (HCC1806, compound A × partner) was 4.78. The HSA volume (HCC1806, compound A × partner) was −2.22, the “Loewe Volume” value (HCC1806, compound A × partner) was 2.14 and the “Synergy Score” value (HCC1806, compound A × partner) was 2.21. The “Best CI” value (HCC1937, compound A × partner) was 0.44, the “Bliss Volume” value (HCC1937, compound A × partner) was 8.88 and the HSA volume (HCC1937, compound A × partner) was 6.08. The “Loewe Volume” value (HCC1937, compound A × partner) was 8.48, the “Synergy Score” value (HCC1937, compound A × partner) was 6.18 and the “Best CI” value (HCC1954, compound A × partner) was 0.16. The “Bliss Volume” value (HCC1954, compound A × partner) was 19.16, the HSA volume (HCC1954, compound A × partner) was 18.41 and the “Loewe Volume” value (HCC1954, compound A × partner) was 17.07. The “Synergy Score” value (HCC1954, compound A × partner) was 33.91, the “Best CI” value (HCC2218, compound A × partner) was 0.13 and the “Bliss Volume” value (HCC2218, compound A × partner) was 10.70. The HSA volume (HCC2218, compound A × partner) was 8.89, the “Loewe Volume” value (HCC2218, compound A × partner) was 7.71 and the “Synergy Score” value (HCC2218, compound A × partner) was 22.09. For the same compound, the “Best CI” value (HDQ-P1, compound A × partner) was 1.46, the “Bliss Volume” value (HDQ-P1, compound A × partner) was −1.34 and the HSA volume (HDQ-P1, compound A × partner) was −1.27. The “Loewe Volume” value (HDQ-P1, compound A × partner) was −2.21, the “Synergy Score” value (HDQ-P1, compound A × partner) was 1.94 and the “Best CI” value (HMC-1-8, compound A × partner) was 0.26. The “Bliss Volume” value (HMC-1-8, compound A × partner) was 17.75, the HSA volume (HMC-1-8, compound A × partner) was 12.01 and the “Loewe Volume” value (HMC-1-8, compound A × partner) was 12.08. The “Synergy Score” value (HMC-1-8, compound A × partner) was 21.76, the “Best CI” value (JIMT-1, compound A × partner) was 0.26 and the “Bliss Volume” value (JIMT-1, compound A × partner) was 2.76. The HSA volume (JIMT-1, compound A × partner) was 1.18, the “Loewe Volume” value (JIMT-1, compound A × partner) was 1.53 and the “Synergy Score” value (JIMT-1, compound A × partner) was 1.19. For the same compound, the “Synergy Score” value (KPL-1, compound A × partner) was 10.58.
`Nc1ccn([C@@H]2O[C@H](CO)[C@@H](O)C2(F)F)c(=O)n1` [Gemcitabine Hydrochloride] was tested, and the “Best CI” value [1] was 0.56, the “Bliss Volume” value [1] was 10.13 and the HSA volume [1] was 3.57. The “Loewe Volume” value [1] was 2.71, the “Synergy Score” value [1] was 9.40 and the “Best CI” value [2] was 0.70. The “Bliss Volume” value [2] was 4.35, the HSA volume [2] was 4.94 and the “Loewe Volume” value [2] was 3.32. The “Synergy Score” value [2] was 11.12, the “Best CI” value [3] was 0.47 and the “Bliss Volume” value [3] was 3.26. The HSA volume [3] was 3.22, the “Loewe Volume” value [3] was 3.49 and the “Synergy Score” value [3] was 5.10. For the same compound, the “Best CI” value [4] was 0.58, the “Bliss Volume” value [4] was 9.98 and the HSA volume [4] was 8.91. For the same compound, the “Loewe Volume” value [4] was 7.81, the “Synergy Score” value [4] was 10.96 and the “Best CI” value [5] was 0.21. For the same compound, the “Bliss Volume” value [5] was −5.00, the HSA volume [5] was −5.87 and the “Loewe Volume” value [5] was −4.98. The “Synergy Score” value [5] was 0.88, the “Best CI” value [6] was 0.36 and the “Bliss Volume” value [6] was 19.19. The HSA volume [6] was 20.88, the “Loewe Volume” value [6] was 20.22 and the “Synergy Score” value [6] was 35.99. For the same compound, the “Best CI” value [7] was 0.06, the “Bliss Volume” value [7] was 26.55 and the HSA volume [7] was 18.50. The “Loewe Volume” value [7] was 18.89, the “Synergy Score” value [7] was 40.36 and the “Bliss Volume” value [8] was −3.76. The HSA volume [8] was −3.58, the “Loewe Volume” value [8] was −2.68 and the “Synergy Score” value [8] was 0.17. For the same compound, the “Best CI” value [9] was 1.07, the “Bliss Volume” value [9] was 9.65 and the HSA volume [9] was 2.02. The “Loewe Volume” value [9] was 1.29, the “Synergy Score” value [9] was 5.11 and the “Best CI” value (HCC38, compound A × partner) was 0.51. The “Bliss Volume” value (HCC38, compound A × partner) was 21.72, the HSA volume (HCC38, compound A × partner) was 8.18 and the “Loewe Volume” value (HCC38, compound A × partner) was 6.75. For the same compound, the “Synergy Score” value (HCC38, compound A × partner) was 14.50, the “Best CI” value (HCC70, compound A × partner) was 0.26 and the “Bliss Volume” value (HCC70, compound A × partner) was 18.66. For the same compound, the HSA volume (HCC70, compound A × partner) was 18.52, the “Loewe Volume” value (HCC70, compound A × partner) was 17.52 and the “Synergy Score” value (HCC70, compound A × partner) was 26.37. For the same compound, the “Best CI” value (HCC1143, compound A × partner) was 0.15, the “Bliss Volume” value (HCC1143, compound A × partner) was 4.32 and the HSA volume (HCC1143, compound A × partner) was 8.39. For the same compound, the “Loewe Volume” value (HCC1143, compound A × partner) was 7.81, the “Synergy Score” value (HCC1143, compound A × partner) was 9.41 and the “Best CI” value (HCC1569, compound A × partner) was 0.68. The “Bliss Volume” value (HCC1569, compound A × partner) was 3.74, the HSA volume (HCC1569, compound A × partner) was 6.80 and the “Loewe Volume” value (HCC1569, compound A × partner) was 6.28. For the same compound, the “Synergy Score” value (HCC1569, compound A × partner) was 5.52, the “Best CI” value (HCC1806, compound A × partner) was 0.13 and the “Bliss Volume” value (HCC1806, compound A × partner) was 17.89. For the same compound, the HSA volume (HCC1806, compound A × partner) was 18.06, the “Loewe Volume” value (HCC1806, compound A × partner) was 17.74 and the “Synergy Score” value (HCC1806, compound A × partner) was 30.81. The “Best CI” value (HCC1937, compound A × partner) was 0.45, the “Bliss Volume” value (HCC1937, compound A × partner) was 2.34 and the HSA volume (HCC1937, compound A × partner) was 0.77. For the same compound, the “Loewe Volume” value (HCC1937, compound A × partner) was 2.36, the “Synergy Score” value (HCC1937, compound A × partner) was 2.33 and the “Best CI” value (HCC1954, compound A × partner) was 0.28. For the same compound, the “Bliss Volume” value (HCC1954, compound A × partner) was 3.78, the HSA volume (HCC1954, compound A × partner) was 5.17 and the “Loewe Volume” value (HCC1954, compound A × partner) was 5.09. For the same compound, the “Synergy Score” value (HCC1954, compound A × partner) was 7.13, the “Best CI” value (HCC2218, compound A × partner) was 0.36 and the “Bliss Volume” value (HCC2218, compound A × partner) was 5.46. The HSA volume (HCC2218, compound A × partner) was 4.02, the “Loewe Volume” value (HCC2218, compound A × partner) was 2.80 and the “Synergy Score” value (HCC2218, compound A × partner) was 6.54. For the same compound, the “Best CI” value (HDQ-P1, compound A × partner) was 0.40, the “Bliss Volume” value (HDQ-P1, compound A × partner) was −3.49 and the HSA volume (HDQ-P1, compound A × partner) was −0.19. For the same compound, the “Loewe Volume” value (HDQ-P1, compound A × partner) was 0.42, the “Synergy Score” value (HDQ-P1, compound A × partner) was 2.05 and the “Best CI” value (HMC-1-8, compound A × partner) was 0.19. For the same compound, the “Bliss Volume” value (HMC-1-8, compound A × partner) was 24.97, the HSA volume (HMC-1-8, compound A × partner) was 9.34 and the “Loewe Volume” value (HMC-1-8, compound A × partner) was 8.40. For the same compound, the “Synergy Score” value (HMC-1-8, compound A × partner) was 17.19, the “Best CI” value (JIMT-1, compound A × partner) was 0.05 and the “Bliss Volume” value (JIMT-1, compound A × partner) was 4.37. For the same compound, the HSA volume (JIMT-1, compound A × partner) was 3.74, the “Loewe Volume” value (JIMT-1, compound A × partner) was 3.50 and the “Synergy Score” value (JIMT-1, compound A × partner) was 1.80. For the same compound, the “Synergy Score” value (MCF7 cells, Compound A × partner agent) was 11.61.
